These results are taken from patent publication US20090082322A1, “Gender Differences in Experimental Aortic Aneurysm Formation” (THE REGENTS OF THE UNIVERSITY OF MICHIGAN, priority 2004, published 2009).

One experiment has as its system MMP-9. The experiment can be described thus: MMP-9 activity (zymography) in media of IL-1β stimulated aortic explants from pretreated male rats. Format: in vivo, Sprague-Dawley rats. The settings on record: male rats treated 3 weeks with 0.1 mg 21-day extended release pellet, IL-1β stimulation; control 75.3, p<0.03. As to the method: Zymography supplies were purchased from Novex. MMP distribution after treatment of RASMC with IL-1β and increasing concentrations of 17-β-estradiol was determined. Gelatin substrate zymograms were prepared using precast 10% SDS-polyacrylamide gels containing 1 mg/mL of gelatin. Equal volumes of experimental media samples were diluted into 2× tris-glycine SDS sample buffer and electrophoretically separated under nonreducing conditions. Proteins were renatured in 2.7% Triton X-100, and the gels were incubated overnight at 37° C. in 50 mmol/L tris-HCl containing 5 mmol/L CaCl2 and 2% Brij 35. After overnight staining with Coomassie blue R-250 and de-staining for 4 hours with 10% acetic acid and 40% methanol in water, gelatinase activity was evident by clear bands against a dark blue background. Male Sprague-Dawley rats (190 g to 210 g) were obtained from Charles River Laboratories. Subcutaneous neck implantation of a 21-day slow release 0.1 mg 17-β-estradiol pellet (Innovative Research of America) was performed under general inhalational anesthesia. This particular estradiol dose results in serum estradiol levels at 2 to 3 weeks of 44.7±6.1 pg/mL compared with 15.0±2.2 pg/mL in control rats (p<0.05). Three weeks after pellet implantation, the infrarenal aorta was explanted under general anesthesia. […]

A further experiment has as its system AAAs. The settings on record: apolipoprotein E-deficient murine model; cited from earlier work.

Each structure is given as a SMILES string.

For the compound `C[C@]12CC[C@@H]3c4ccc(O)cc4CC[C@H]3[C@@H]1CC[C@@H]2O` [17-β-estradiol], in the experiment on MMP-9, the “MMP-9 activity in conditioned media of aortic explants” value came out at 29.9 OD×10^3/mg protein. Moreover, the “development of AAAs” value in the experiment on AAAs was “attenuate the development of AAAs”.
